We go through ten molecules from patent US20070203066A1, “Compositions and methods for inhibiting cellular proliferation” (priority 2005, published 2007).

No end group written: not given here.

One assay relates to HUVECs. It counts as cell-based. To be noted: 48 h. A digest of the protocol:
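Proliferation read-out: BrdU incorporation after 48-hour culture (37 ° C, 5% CO2) with graded peptide doses. Cells were in EBM with 2% FCS at 5,000 per well, driven by VEGF (5 ng/ml) or bFGF (10 ng/ml), added after ≥12-hour attachment.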
Regarding `CC[C@H](C)[C@H](NC(=O)[C@H](CCCNC(=N)N)NC(=O)[C@@H](NC(=O)[C@H](CCCNC(=N)N)NC(=O)[C@H](CCC(N)=O)NC(=O)[C@H](CCCNC(=N)N)NC(=O)[C@H](CCCNC(=N)N)NC(=O)[C@H](CCCNC(=N)N)NC(=O)[C@H](CCCNC(=N)N)NC(=O)[C@H](CCCNC(=N)N)NC(C)=O)C(C)C)C(=O)N[C@H](C(=O)N[C@@H](Cc1ccccc1)C(=O)N[C@@H](CCCCNC(=O)CN(CC(=O)NCCCC[C@H](NC(=O)[C@H](Cc1ccccc1)NC(=O)[C@@H](NC(=O)[C@@H](NC(=O)[C@H](CCCNC(=N)N)NC(=O)[C@@H](NC(=O)[C@H](CCCNC(=N)N)NC(=O)[C@H](CCC(N)=O)NC(=O)[C@H](CCCNC(=N)N)NC(=O)[C@H](CCCNC(=N)N)NC(=O)[C@H](CCCNC(=N)N)NC(=O)[C@H](CCCNC(=N)N)NC(=O)[C@H](CCCNC(=N)N)NC(C)=O)C(C)C)[C@@H](C)CC)[C@@H](C)CC)C(N)=O)C(=O)CCNC(=O)OC(C)(C)C)C(N)=O)[C@@H](C)CC` [Peptide 167], the IC50 (as a rule, the concentration at which inhibition is half-maximal) was below 10 µM.

Take `CC[C@H](C)[C@H](NC(=O)[C@H](C)NC(=O)[C@@H](NC(=O)[C@H](CCCNC(=N)N)NC(=O)[C@H](CCC(N)=O)NC(=O)[C@H](CCCNC(=N)N)NC(=O)[C@H](CCCNC(=N)N)NC(=O)[C@H](CCCNC(=N)N)NC(=O)[C@H](CCCNC(=N)N)NC(=O)[C@H](C)NC(C)=O)C(C)C)C(=O)N[C@@H](Cc1ccc(O)cc1)C(=O)N[C@@H](Cc1ccccc1)C(=O)N[C@@H](CCCCNC(=O)CN(CC(=O)NCCCC[C@H](NC(=O)[C@H](Cc1ccccc1)NC(=O)[C@H](Cc1ccc(O)cc1)NC(=O)[C@@H](NC(=O)[C@H](C)NC(=O)[C@@H](NC(=O)[C@H](CCCNC(=N)N)NC(=O)[C@H](CCC(N)=O)NC(=O)[C@H](CCCNC(=N)N)NC(=O)[C@H](CCCNC(=N)N)NC(=O)[C@H](CCCNC(=N)N)NC(=O)[C@H](CCCNC(=N)N)NC(=O)[C@H](C)NC(C)=O)C(C)C)[C@@H](C)CC)C(N)=O)C(=O)CCNC(=O)OC(C)(C)C)C(N)=O` [Peptide 228]: the concentration for half-maximal inhibition (IC50) was below 10 µM.

The assay is the same for the next values; noted with them: HUVEC proliferation, bFGF at 10 ng/ml or VEGF at 5 ng/ml, 48 hours, BrdU incorporation; read-out: IC50 on HUVECs.
As to “506 (Ac-ARRRRQRVAIYFKGGRGDSP; also: homodimer via Ida linker at Lys13 side chain) [compound 506]”, the IC50 is below 10 µM.

With “507 (Ac-RGDSPGGARRRRQRVAIYFK; also: homodimer via Ida linker on Lys20 side chain) [compound 507]”, the IC50 is below 10 µM.

On to “508 (Ac-CNGRCGGARRRRQRVAIYFK; not fully specified (C-terminus); cysteine pairing not given here; also: homodimer via Ida linker at Lys20 side chain) [compound 508]”, for which the half-inhibitory concentration (IC50) is below 10 µM.

Turning to “509 (Ac-ARRRRARVAIYFK; not fully specified (C-terminus); also: homodimer via Ida linker at Lys13 side chain) [compound 509]”, the IC50 was below 10 µM.

Regarding “510 (Ac-ARRRRERVAIYFK; not fully specified (C-terminus); also: homodimer via Ida linker at Lys13 side chain) [compound 510]”, the IC50 is below 10 µM.

Take “511 (Ac-ARRRRFRVAIYFK; not fully specified (C-terminus); also: homodimer via Ida linker at Lys13 side chain) [compound 511]”: the IC50 fell in the range of 10 to 30 µM.

As to “512 (Ac-ARRRRGRVAIYFK; not fully specified (C-terminus); also: homodimer via Ida linker at Lys13 side chain) [compound 512]”, the IC50 is below 10 µM.

Take “513 (Ac-ARRRRIRVAIYFK; not fully specified (C-terminus); also: homodimer via Ida linker at Lys13 side chain) [compound 513]”: the IC50 lay within 10 to 30 µM.
